{"source": "PubChem BioAssay AID1259411", "about": "(Chemical Carcinogenesis Research Information System (CCRIS), 2018)", "system": "rodent carcinogenicity bioassays, tumor incidence", "experiment": "CCRIS carcinogenicity studies", "details": "Dose: 0, Dose: 0", "outline": "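NCI-built, expert-reviewed records of carcinogenicity and related test outcomes (mutagenicity, tumor promotion/inhibition) compiled from published and report sources, historical span 1985-2011, not updated.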", "note": "The source made the active and inactive calls. How the calls were made is not given here.", "data": [{"smiles": "Clc1ccc2c(c1)Oc1ccc(Cl)cc1O2", "values": [{"measurement": "carcinogen call", "setting": "Species: MOUSE, Strain/Sex: B6C3F1/FEMALE, Route: ORAL, 5,000, 10,000 PPM IN DIET FOR 90 WK (STUDY DURATION: 91-98 WK), 5,000, 10,000 PPM IN DIET FOR 90 WK (STUDY DURATION: 91-98 WK)", "result": "inactive; negative"}, {"measurement": "carcinogen call", "setting": "Species: MOUSE, Strain/Sex: B6C3F1/MALE, Route: ORAL, 5000, 10000 PPM IN DIET FOR 90 WK (STUDY DURATION: 92-101 WK), 5000, 10000 PPM IN DIET FOR 90 WK (STUDY DURATION: 92-101 WK), Tumor Site: Type of Lesion: LIVER: HEPTOCELLULAR ADENOMA OR CARCINOMA, HEMATOPOIETIC SYSTEM: LYMPHOMA OR LEUKEMIA, SPLEEN: HEMANGIOMA OR HEMANGIOSAR, Tumor Site: Type of Lesion: LIVER: HEPTOCELLULAR ADENOMA OR CARCINOMA, HEMATOPOIETIC SYSTEM: LYMPHOMA OR LEUKEMIA, SPLEEN: HEMANGIOMA OR HEMANGIOSAR", "result": "equivocal"}, {"measurement": "carcinogen call", "setting": "Species: RAT, Strain/Sex: OSBORNE-MENDEL/FEMALE, Route: ORAL, 5,000, 10,000 PPM IN DIET FOR 110 WK (STUDY DURATION: 110-117 WK), 5,000, 10,000 PPM IN DIET FOR 110 WK (STUDY DURATION: 110-117 WK)", "result": "inactive; negative"}, {"measurement": "carcinogen call", "setting": "Species: RAT, Strain/Sex: OSBORNE-MENDEL/MALE, Route: ORAL, 5,000, 10,000 PPM IN DIET FOR 110 WK (STUDY DURATION: 110-112 WK), 5,000, 10,000 PPM IN DIET FOR 110 WK (STUDY DURATION: 110-112 WK)", "result": "inactive; negative"}]}, {"smiles": "CC1CN(N=O)C(=O)O1", "note": "(stereo not drawn)", "values": [{"measurement": "carcinogen call", "setting": "Species: HAMSTER, Strain/Sex: SYRIAN/FEMALE, Route: GAVAGE, 14 MG/ML ((0.2 ML OF A SOLUTION IN ETHYL ACETATE/CORN OIL (1:2)) 1/WK FOR 28 WK (STUDY DURATION: LIFE SPAN), Tumor Site: Type of Lesion: FORESTOMACH: SQUAMOUS CELL CARCINOMA OR PAPILLOMA", "result": "active; positive"}]}, {"smiles": "OC(c1ccc(Cl)cc1)(c1cncnc1)c1ccccc1Cl", "note": "(stereo not drawn)", "values": [{"measurement": "carcinogen call", "setting": "Species: Rat, Strain/Sex: Wistar/Female (120/Control group; 80/Experimental group), Route: Oral, 50, 130, 350 ppm in diet for 24 mo, study duration 24 mo, 50, 130, 350 ppm in diet for 24 mo, study duration 24 mo", "result": "inactive; negative (nonstatistical increase in hepatocellular adenomas)"}, {"measurement": "carcinogen call", "setting": "Species: Rat, Strain/Sex: Wistar/Male (120/Control group; 80/Experimental group), Route: Oral, 50, 130, 350 ppm in diet for 24 mo, study duration 24 mo, 50, 130, 350 ppm in diet for 24 mo, study duration 24 mo", "result": "inactive; negative (nonstatistical increase in hepatocellular adenomas)"}]}, {"smiles": "COCCN(N=O)C(N)=O", "values": [{"measurement": "carcinogen call", "setting": "Species: RAT, Strain/Sex: F344/FEMALE, Route: INTRAVESICULAR, 3.2 MG 2/WK FOR 17 WK (STUDY DURATION: LIFETIME), Tumor Site: Type of Lesion: BLADDER: TUMOR", "result": "active; positive"}]}]}
